# Laboratory results from article PMC4948780, “PARP Inhibitors in Clinical Use Induce Genomic Instability in Normal Human Cells” (PLoS ONE, 2016).
# pIC50: −log10 of the molar value.
# Columns and labels:
# [1] = tested on: MCF-10A; test: Clonogenic survival assay; assay type: cell-based, human
# Procedure: Clonogenic survival was assessed by colony counting at 9 days. […] Viable cells were scored and enumerated by trypan blue exclusion at 7 days. Means with SD are shown (MCF-10A: n = 3, primary T cell 1: n = 2). […] Fold increases of SCE per chromosome compared with no treatment or 0.5 μM cisplatin are shown for each cell type. Approximately 50 metaphases were counted for each cell. Error bars depict the mean with SD. Asterisks designate statistical significance for unpaired t-test at P < 0.0001. C. […] One hundred metaphases were counted for each exposure. Fold increases of chromatid-type aberrations per chromosome compared with no treatment or 0.5 μM cisplatin are shown for each cell type. The y-axis is the number of total chromatid-type aberrations per chromosome for each metaphase counted. Error bars indicate mean with SEM. The P-values were calculated using unpaired t-test.
# (§1) Human mammary epithelial cell lines used included non-tumorigenic diploid MCF-10A, HMEC-hTERT and tumorigenic MDA-MB-468 (basal) and MCF-7 (luminal). […] Blood samples were obtained from normal donor participants. The participants provided written informed consent to IRB protocol #95–054 approved by the Institutional Review Board at MSKCC. The original signed consent is then sent to the research participant’s medical record and a copy of the consent is given to the participant. The EBV-transformed B-lymphocyte cell line (EBV-BL) was generated by transformation of peripheral blood mononuclear cells (PBMC) with the B95.8 strain of EBV, as previously described. Primary T cells were generated from PBMC from two normal donors by non-specific activation with phytohemagglutinin and cultured in RPMI1640 and human serum AB for 4–14 days before use. E14 mES cell line was provided by M. Hooper, Brca1^-/- 236.44 mES cell line was provided by B. H. Koller, Brca2^lex1/lex2 mES cell line was provided by P. Hasty and Lexicon Genetics. E14 wild-type, Brca1^-/- 236.44, and Brca2^lex1/lex2 mES cell lines were cultured in standard ES media. Brca1^-/- 236.44 cells express a BRCA1 peptide deleted for sequences encoded by exon 11 [52], while Brca2^lex1/lex2 cells express a BRCA2 peptide deleted for the terminal exon 27 [53]. Olaparib was synthesized in the MSKCC Organic chemistry core facility. Veliparib and BSI-201 were purchased from Chemie Tek. The compounds were dissolved in DMSO and PBS. For clonogenic survival assays, MCF-10A (1000 cells), HMEC-hTERT (1000 cells), MDA-MB-468 (1500 cells) and mouse ES cell (2000 cells) were seeded, vehicle control or inhibitors were added at the indicated concentration 24 hours after seeding and changed every three days for continuous treatment. At 7–14 days, colonies were fixed with methanol and stained with Giemsa. For EBV-BL (6 × 10^6) and primary T cells (3.6 × 10^6) were continuously exposed to the indicated concentration of drug for 10 days at 0.6 × 10^6 cells/ml. Viable cells were scored by trypan blue exclusion.
# [2] = tested on: EBV-BL; test: Survival, trypan blue exclusion test of cell viability; assay type: cell-based, human
# From the text: as §1, with “Olaparib was synthesized in the MSKCC Organic chemistry core facility.” left out
# [3] = tested on: primary T cell 2; test: as above; assay type: cell-based; conditions: Homo sapiens, read-out: IC50 of olaparib, continuous exposure
# From the text: as §1, with “Olaparib was synthesized in the MSKCC Organic chemistry core facility. Veliparib and BSI-201 were purchased from Chemie Tek. The compounds were dissolved in DMSO and PBS. For clonogenic survival assays, MCF-10A (1000 cells), HMEC-hTERT (1000 cells), MDA-MB-468 (1500 cells) and mouse ES cell (2000 cells) were seeded, vehicle control or inhibitors were added at the indicated concentration 24 hours after seeding and changed every three days for continuous treatment. At 7–14 days, colonies were fixed with methanol and stained with Giemsa. For EBV-BL (6 × 10^6) and primary T cells (3.6 × 10^6) were continuously exposed to the indicated concentration of drug for 10 days at 0.6 × 10^6 cells/ml.” left out
# [4] = tested on: WT E14 mES cells; test: Clonogenic survival assay, mES cells; assay type: cell-based; conditions: Mus musculus, read-out: IC50 (clonogenic survival)
# From the text: as §1, with “Olaparib was synthesized in the MSKCC Organic chemistry core facility.” left out
# [5] = tested on: repair-proficient human cells; test: SCE assay, summary over the human cell types; assay type: cell-based; conditions: primary T cells; brief exposure
# From the text: Human mammary epithelial cell lines used included non-tumorigenic diploid MCF-10A, HMEC-hTERT and tumorigenic MDA-MB-468 (basal) and MCF-7 (luminal). […] Blood samples were obtained from normal donor participants. The participants provided written informed consent to IRB protocol #95–054 approved by the Institutional Review Board at MSKCC. The original signed consent is then sent to the research participant’s medical record and a copy of the consent is given to the participant. The EBV-transformed B-lymphocyte cell line (EBV-BL) was generated by transformation of peripheral blood mononuclear cells (PBMC) with the B95.8 strain of EBV, as previously described. Primary T cells were generated from PBMC from two normal donors by non-specific activation with phytohemagglutinin and cultured in RPMI1640 and human serum AB for 4–14 days before use. E14 mES cell line was provided by M. Hooper, Brca1^-/- 236.44 mES cell line was provided by B. H. Koller, Brca2^lex1/lex2 mES cell line was provided by P. Hasty and Lexicon Genetics. E14 wild-type, Brca1^-/- 236.44, and Brca2^lex1/lex2 mES cell lines were cultured in standard ES media. […] Viable cells were scored by trypan blue exclusion.
# To prepare metaphase spreads, exponentially growing cells were treated with 0.1–0.3 μg/ml of colcemid for 1–6 hr. […] To visualize SCEs, the doubling time for each cell type was determined. […]
# [6] = patients on the olaparib-treated arm, prior cytotoxic chemotherapy; cited from earlier work
smiles,measurement,setting,value
O=C(c1cc(Cc2n[nH]c(=O)c3ccccc23)ccc1F)N1CCN(C(=O)C2CC2)CC1 [olaparib],survival (mean ± SD),[1]; 1 μM,95.7 ± 1.9%
same,pIC50,"[1]; Homo sapiens, continuous exposure, clonogenic survival assay, read-out: IC50 (cell survival)",5.33
same,survival (mean ± SD),"[2]; EBV-BL, 1 μM",92.6 ± 7.4%
same,pIC50,"[2]; Homo sapiens, 240 h, read-out: IC50 (cell survival), EBV-BL, continuous exposure 10 days, trypan blue exclusion",5.44
same,pIC50,[3],5.57
same,pIC50,[4],6.22
same,average SCEs per metaphase,[5],~ 40
same,incidence of myelodysplastic syndrome and acute myelogenous leukemia,[6],2.2%
